Assay results published in patent US9567302B2, “Carbamate compounds and of making and using same” (Abide Therapeutics, Inc., priority 2012, dated 2017).

Columns and labels:
MAGL [1] = biological target: T1, MAGL (Mus musculus, UniProt O35678); assay: Mouse brain MAGL inhibition in proteomes from inhibitor treated mice (oral gavage); assay type: in vivo; set-up: from tissue; host or cells: mouse brain membrane fraction; settings: p.o., C57Bl/6J mice, brain proteome 4 h following administration
T1 sequence (O35678 1-303): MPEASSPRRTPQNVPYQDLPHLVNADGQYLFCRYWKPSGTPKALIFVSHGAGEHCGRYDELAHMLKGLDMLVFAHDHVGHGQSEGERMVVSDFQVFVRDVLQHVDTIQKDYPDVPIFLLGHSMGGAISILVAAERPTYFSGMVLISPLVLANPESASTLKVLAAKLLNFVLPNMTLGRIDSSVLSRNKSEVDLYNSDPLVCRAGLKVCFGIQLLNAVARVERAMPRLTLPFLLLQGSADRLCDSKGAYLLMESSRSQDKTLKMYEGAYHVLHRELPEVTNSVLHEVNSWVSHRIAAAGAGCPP
Description: (§1) Proteomes (mouse brain membrane fraction or cell lysates) (50 μL, 1.0 mg/ml total protein concentration) were preincubated with varying concentrations of inhibitors at 37° C. After 30 min, FP-Rh (1.0 μL, 50 μM in DMSO) was added and the mixture was incubated for another 30 min at 37° C. Reactions were quenched with SDS loading buffer (50 μL—4×) and run on SDS-PAGE.
Preparation of Mouse Brain Proteomes from Inhibitor Treated Mice.
Inhibitors were administered to wild-type C57B1/6J by oral gavage in a vehicle of polyethylene glycol.

ABHD6 = biological target: T2, ABHD6 (Mus musculus, UniProt Q8R2Y0); assay: In vitro competitive activity-based protein profiling (FP-Rh), mouse ABHD6; assay type: biochemical; set-up: from tissue; host or cells: mouse brain membrane fraction; settings: 30 min preincubation at 37° C.
T2 sequence (Q8R2Y0 1-336): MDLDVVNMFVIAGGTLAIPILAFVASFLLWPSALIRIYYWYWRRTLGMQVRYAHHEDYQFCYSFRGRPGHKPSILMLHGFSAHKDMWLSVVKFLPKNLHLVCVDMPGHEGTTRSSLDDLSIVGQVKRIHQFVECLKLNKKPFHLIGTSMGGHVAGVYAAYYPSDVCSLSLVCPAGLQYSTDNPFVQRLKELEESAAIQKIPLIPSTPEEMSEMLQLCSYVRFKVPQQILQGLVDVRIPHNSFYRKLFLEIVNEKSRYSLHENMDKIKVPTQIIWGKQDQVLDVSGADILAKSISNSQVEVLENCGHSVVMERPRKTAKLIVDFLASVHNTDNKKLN
Description: (§2) In Vitro Competitive Activity-Based Protein Profiling.
as §1

FAAH = biological target: T3, FAAH (Mus musculus, UniProt O08914); assay: In vitro competitive activity-based protein profiling (FP-Rh), mouse FAAH; assay type: biochemical; set-up: from tissue; host or cells: mouse brain membrane fraction; settings: 30 min preincubation at 37° C.
T3 sequence (O08914 1-579): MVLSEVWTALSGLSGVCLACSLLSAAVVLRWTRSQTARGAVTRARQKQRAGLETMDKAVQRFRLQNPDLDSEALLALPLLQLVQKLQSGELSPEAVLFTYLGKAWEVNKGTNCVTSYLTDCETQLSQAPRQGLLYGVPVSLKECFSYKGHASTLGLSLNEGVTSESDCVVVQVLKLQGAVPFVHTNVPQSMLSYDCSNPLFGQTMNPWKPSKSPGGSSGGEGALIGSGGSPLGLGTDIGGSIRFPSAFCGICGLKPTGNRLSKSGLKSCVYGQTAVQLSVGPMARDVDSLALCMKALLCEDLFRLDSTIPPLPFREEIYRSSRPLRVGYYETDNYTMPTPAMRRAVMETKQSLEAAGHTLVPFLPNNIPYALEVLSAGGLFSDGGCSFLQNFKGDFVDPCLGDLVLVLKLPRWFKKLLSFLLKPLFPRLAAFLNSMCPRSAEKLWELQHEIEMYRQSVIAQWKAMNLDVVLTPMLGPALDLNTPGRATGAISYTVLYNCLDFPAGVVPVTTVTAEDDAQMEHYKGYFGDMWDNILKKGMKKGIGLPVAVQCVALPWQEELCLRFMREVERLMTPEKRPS
Description: as §2, §1

hMAGL = biological target: T4, hMAGL (Homo sapiens, UniProt Q99685); assay: Competitive ABPP with human MAGL recombinantly expressed in HEK293T cells; assay type: biochemical; settings: Table 1; hMAGL-HEK293T cell lysates
T4 construct: expressed in transfected cells; host or cells: HEK293T
T4 sequence (Q99685 1-303): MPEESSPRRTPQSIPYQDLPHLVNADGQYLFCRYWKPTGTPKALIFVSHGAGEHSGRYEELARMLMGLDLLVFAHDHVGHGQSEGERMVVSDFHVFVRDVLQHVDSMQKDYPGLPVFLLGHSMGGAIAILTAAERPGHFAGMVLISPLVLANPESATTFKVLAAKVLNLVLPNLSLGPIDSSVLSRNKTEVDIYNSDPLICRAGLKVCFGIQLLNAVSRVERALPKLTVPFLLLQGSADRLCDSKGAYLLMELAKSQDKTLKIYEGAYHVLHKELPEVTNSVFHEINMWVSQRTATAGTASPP
Description: as §1
Recombinant Expression of Human MAGL in HEK293T Cells.
Cell lysates were diluted with mock proteomes for use in competitive ABPP experiments.

MAGL [2] = biological target: T1, MAGL; assay: In vitro competitive activity-based protein profiling (FP-Rh), mouse MAGL; assay type: biochemical; set-up: from tissue; host or cells: mouse brain membrane fraction; settings: 30 min preincubation at 37° C.
Description: as §2, §1

inhibition at 20 mg/kg (MAGL [1]) [%]	IC50 (ABHD6; Table 1, mouse proteome) [nM]	IC50 (FAAH; Table 1, mouse proteome) [nM]	IC50 (hMAGL) [nM]	IC50 (MAGL [2]; Table 1, mouse proteome) [nM]	inhibition at 5 mg/kg (MAGL [1]; 5 mg/kg) [%]	IC50 (ABHD6; Table 2, mouse proteome) [nM]	IC50 (FAAH; Table 2, mouse proteome) [nM]	IC50 (MAGL [2]; Table 2, mouse proteome) [nM]	Compound
75	100 to 1000	> 10000	< 100	< 100	–	–	–	–	O=C(ON1C(=O)CCC1=O)N1CCC(C(O)(c2ccc3c(c2)OCO3)c2ccc3c(c2)OCO3)CC1 [Example 1, 2,5-Dioxopyrrolidin-1-yl 4-(bis(benzo[d][1,3]dioxol-5 yl)(hydroxy)methyl)piperidine-1-carboxylate]
> 95	100 to 1000	> 10000	< 100	< 100	–	–	–	–	O=C(ON1C(=O)CCC1=O)N1CCN(C(c2ccc(Br)cc2)c2ccc(Br)cc2)CC1 [Example 3, 2,5-Dioxopyrrolidin-1-yl 4-[bis(4-bromophenyl)methyl]piperazine-1-carboxylate]
–	–	–	–	–	100	100 to 1000	> 10000	< 100	Cc1c(CN2CCN(C(=O)ON3C(=O)CCC3=O)CC2)cccc1N1CCCCC1 [Example 122, 2,5-Dioxopyrrolidin-1-yl 4-(2-methyl-3-(piperidin-1-yl)benzyl)piperazine-1-carboxylate]
